# Experimental data: ChEMBL document CHEMBL2440027, “Further SAR studies on bicyclic basic merbarone analogues as potent antiproliferative agents” (Bioorg Med Chem, 2013)
# What was measured:
# Type in all cases: functional
# UACC-257 = assay: Growth inhibition of human UACC257 cells after 48 hrs by sulforhodamine B assay; settings: UACC-257, 48 h; for CC50: read-out: LC50 (the source's name)
# SR [1] = assay: Growth inhibition of human SR cells after 48 hrs by sulforhodamine B assay
# LOX IMVI = assay: Growth inhibition of human LOXIMVI cells assessed as cell growth at 10 uM after 48 hrs by sulforhodamine B assay relative to control; settings: read-out: Activity
# SNB-19 [2] = assay: Growth inhibition of human SNB19 cells assessed as cell growth at 10 uM after 48 hrs by sulforhodamine B assay relative to control; settings: SNB-19, 48 h, read-out: Activity
# SK-MEL-28 = assay: Growth inhibition of human SK-MEL-28 cells assessed as cell growth at 10 uM after 48 hrs by sulforhodamine B assay relative to control; settings: SK-MEL-28, 48 h, read-out: Activity
# 786-0 = assay: Growth inhibition of human 786-0 cells assessed as cell growth at 10 uM after 48 hrs by sulforhodamine B assay relative to control; settings: 786-0, 48 h, read-out: Activity
# NCI-H460 [3] = assay: Growth inhibition of human NCI-H460 cells assessed as cell growth at 10 uM after 48 hrs by sulforhodamine B assay relative to control; settings: NCI-H460, 48 h, read-out: Activity
# SF-268 = assay: Growth inhibition of human SF268 cells assessed as cell growth at 10 uM after 48 hrs by sulforhodamine B assay relative to control; settings: SF-268, 48 h, read-out: Activity
# A549 = assay: Growth inhibition of human A549/ATCC cells after 48 hrs by sulforhodamine B assay; settings: A549, 48 h
# NCI-H460 [4] = assay: Growth inhibition of human NCI-H460 cells after 48 hrs by sulforhodamine B assay; settings: NCI-H460, 48 h
# KM12 = assay: Growth inhibition of human KM12 cells assessed as cell growth at 10 uM after 48 hrs by sulforhodamine B assay relative to control; settings: KM12, 48 h, read-out: Activity
# SN12C = assay: Growth inhibition of human SN12C cells after 48 hrs by sulforhodamine B assay; settings: for CC50: read-out: LC50 (the source's name)
# HCT-15 [5] = assay: Growth inhibition of human HCT15 cells assessed as cell growth at 10 uM after 48 hrs by sulforhodamine B assay relative to control; settings: HCT-15, 48 h, read-out: Activity
# SW-620 = assay: Growth inhibition of human SW620 cells after 48 hrs by sulforhodamine B assay; settings: SW-620, 48 h
# HCT-116 = assay: Growth inhibition of human HCT116 cells assessed as cell growth at 10 uM after 48 hrs by sulforhodamine B assay relative to control; settings: HCT-116, 48 h, read-out: Activity
# HOP-62 = assay: Growth inhibition of human HOP62 cells after 48 hrs by sulforhodamine B assay; settings: HOP-62, 48 h
# OVCAR-3 [6] = assay: Growth inhibition of human OVCAR3 cells assessed as cell growth at 10 uM after 48 hrs by sulforhodamine B assay relative to control; settings: OVCAR-3, 48 h, read-out: Activity
# SNB-19 [7] = assay: Growth inhibition of human SNB19 cells after 48 hrs by sulforhodamine B assay; settings: SNB-19, 48 h; for CC50: read-out: LC50 (the source's name)
# SK-MEL-2 = assay: Growth inhibition of human SK-MEL-2 cells after 48 hrs by sulforhodamine B assay; settings: SK-MEL-2, 48 h
# PC-3 = assay: Growth inhibition of human PC3 cells assessed as cell growth at 10 uM after 48 hrs by sulforhodamine B assay relative to control; settings: PC-3, 48 h, read-out: Activity
# MDA-MB-435 = assay: Growth inhibition of human MDA-MB-435 cells assessed as cell growth at 10 uM after 48 hrs by sulforhodamine B assay relative to control; settings: MDA-MB-435, 48 h, read-out: Activity
# [8] = Growth inhibition of human HCC2998 cells assessed as cell growth at 10 uM after 48 hrs by sulforhodamine B assay relative to control; settings: HCC 2998, 48 h, read-out: Activity
# U-251 = assay: Growth inhibition of human U251 cells assessed as cell growth at 10 uM after 48 hrs by sulforhodamine B assay relative to control; settings: U-251, 48 h, read-out: Activity
# [9] = Growth inhibition of human Hs 578T cells assessed as cell growth at 10 uM after 48 hrs by sulforhodamine B assay relative to control; settings: read-out: Activity
# OVCAR-3 [10] = assay: Growth inhibition of human OVCAR3 cells after 48 hrs by sulforhodamine B assay; settings: OVCAR-3, 48 h
# COLO 205 [11] = assay: Growth inhibition of human COLO205 cells assessed as cell growth at 10 uM after 48 hrs by sulforhodamine B assay relative to control; settings: COLO 205, 48 h, read-out: Activity
# [12] = Growth inhibition of human Hs 578T cells after 48 hrs by sulforhodamine B assay; settings: for CC50: read-out: LC50 (the source's name)
# HCT-15 [13] = assay: Growth inhibition of human HCT15 cells after 48 hrs by sulforhodamine B assay; settings: HCT-15, 48 h
# HT-29 = assay: Growth inhibition of human HT-29 cells after 48 hrs by sulforhodamine B assay; settings: HT-29, 48 h; for CC50: read-out: LC50 (the source's name)
# SR [14] = assay: Growth inhibition of human SR cells assessed as cell growth at 10 uM after 48 hrs by sulforhodamine B assay relative to control; settings: read-out: Activity
# HL-60(TB) = assay: Growth inhibition of human HL-60(TB) cells after 48 hrs by sulforhodamine B assay; settings: HL-60, 48 h
# Malme-3M = assay: Growth inhibition of human MALME-3M cells after 48 hrs by sulforhodamine B assay; settings: for CC50: read-out: LC50 (the source's name)
# RXF 393 = assay: Growth inhibition of human RXF393 cells assessed as cell growth at 10 uM after 48 hrs by sulforhodamine B assay relative to control; settings: RXF 393, 48 h, read-out: Activity
# COLO 205 [15] = assay: Growth inhibition of human COLO205 cells after 48 hrs by sulforhodamine B assay; settings: COLO 205, 48 h; for CC50: read-out: LC50 (the source's name)
compound,measurement,setting,value
CN(C)CCNc1nc2c(c(=N)n1-c1ccccc1)c(=S)n(-c1ccccc1)c(=S)n2-c1ccccc1,GI50,UACC-257,1.7 µM
same,TGI,UACC-257,3.6 µM
same,CC50,UACC-257,7.5 µM
same,GI50,SR [1],1.4 µM
same,LC50,SR [1],8.2 µM
same,TGI,SR [1],3.3 µM
same,growth at 10 µM,LOX IMVI,-61.4%
same,growth at 10 µM,SNB-19 [2],26.1%
same,growth at 10 µM,SK-MEL-28,-100%
same,growth at 10 µM,786-0,-83.5%
same,growth at 10 µM,NCI-H460 [3],3.8%
same,growth at 10 µM,SF-268,24%
same,GI50,A549,4.1 µM
same,LC50,A549,70.4 µM
same,TGI,A549,18.6 µM
same,GI50,NCI-H460 [4],3.2 µM
same,LC50,NCI-H460 [4],61.2 µM
same,TGI,NCI-H460 [4],11.8 µM
same,growth at 10 µM,KM12,0.2%
same,GI50,SN12C,6.2 µM
same,TGI,SN12C,19.9 µM
same,CC50,SN12C,48 µM
same,growth at 10 µM,HCT-15 [5],18.8%
same,GI50,SW-620,2.1 µM
same,LC50,SW-620,18.8 µM
same,TGI,SW-620,5.1 µM
same,growth at 10 µM,HCT-116,-22.1%
same,GI50,HOP-62,2.9 µM
same,LC50,HOP-62,55.6 µM
same,TGI,HOP-62,10.1 µM
same,growth at 10 µM,OVCAR-3 [6],-48.7%
same,GI50,SNB-19 [7],4.9 µM
same,TGI,SNB-19 [7],19 µM
same,CC50,SNB-19 [7],50 µM
same,GI50,SK-MEL-2,1.7 µM
same,LC50,SK-MEL-2,6.7 µM
same,TGI,SK-MEL-2,3.4 µM
same,growth at 10 µM,PC-3,31%
same,growth at 10 µM,MDA-MB-435,-64.5%
same,growth at 10 µM,[8],-39.6%
same,growth at 10 µM,U-251,2.1%
same,growth at 10 µM,[9],12.3%
same,GI50,OVCAR-3 [10],3 µM
same,LC50,OVCAR-3 [10],45.4 µM
same,TGI,OVCAR-3 [10],12.5 µM
same,growth at 10 µM,COLO 205 [11],6.65%
same,GI50,[12],2.3 µM
same,TGI,[12],7.7 µM
same,CC50,[12],40 µM
same,GI50,HCT-15 [13],1.4 µM
same,LC50,HCT-15 [13],17.7 µM
same,TGI,HCT-15 [13],4.5 µM
same,GI50,HT-29,1.4 µM
same,TGI,HT-29,3.4 µM
same,CC50,HT-29,8.3 µM
same,growth at 10 µM,SR [14],34.7%
same,GI50,HL-60(TB),1.5 µM
same,LC50,HL-60(TB),7.1 µM
same,TGI,HL-60(TB),3.3 µM
same,GI50,Malme-3M,2.6 µM
same,TGI,Malme-3M,5 µM
same,CC50,Malme-3M,9.5 µM
same,growth at 10 µM,RXF 393,-39.1%
same,GI50,COLO 205 [15],1.6 µM
same,TGI,COLO 205 [15],3.8 µM
same,CC50,COLO 205 [15],9.1 µM
CCCCN(CCCC)CCCNc1nc2c(c(=N)n1-c1ccccc1)c(=S)n(-c1ccccc1)c(=S)n2-c1ccccc1,GI50,UACC-257,0.2 µM
same,TGI,UACC-257,0.4 µM
same,CC50,UACC-257,0.9 µM
same,GI50,SR [1],0.3 µM
same,LC50,SR [1],7 µM
same,TGI,SR [1],1.5 µM
same,growth at 10 µM,LOX IMVI,-89.7%
same,growth at 10 µM,SNB-19 [2],-87.4%
same,growth at 10 µM,SK-MEL-28,-100%
same,growth at 10 µM,786-0,-100%
same,growth at 10 µM,NCI-H460 [3],-95.7%
same,growth at 10 µM,SF-268,-94%
same,GI50,A549,0.7 µM
same,LC50,A549,8.3 µM
same,TGI,A549,2.4 µM
same,GI50,NCI-H460 [4],0.4 µM
same,LC50,NCI-H460 [4],4 µM
same,TGI,NCI-H460 [4],1.6 µM
same,growth at 10 µM,KM12,-100%
same,GI50,SN12C,1.2 µM
same,TGI,SN12C,2.4 µM
same,CC50,SN12C,4.9 µM
same,growth at 10 µM,HCT-15 [5],-73.3%
same,GI50,SW-620,0.4 µM
same,LC50,SW-620,3.7 µM
same,TGI,SW-620,1.4 µM
same,growth at 10 µM,HCT-116,-25%
same,GI50,HOP-62,1.2 µM
same,LC50,HOP-62,5.4 µM
same,TGI,HOP-62,2.6 µM
same,growth at 10 µM,OVCAR-3 [6],-100%
same,GI50,SNB-19 [7],1.2 µM
same,TGI,SNB-19 [7],2.7 µM
same,CC50,SNB-19 [7],5.8 µM
same,GI50,SK-MEL-2,1.7 µM
same,LC50,SK-MEL-2,6.9 µM
same,TGI,SK-MEL-2,3.5 µM
same,growth at 10 µM,PC-3,-70.8%
same,growth at 10 µM,MDA-MB-435,-100%
same,growth at 10 µM,[8],-91.5%
same,growth at 10 µM,U-251,-100%
same,growth at 10 µM,[9],-64.6%
same,GI50,OVCAR-3 [10],0.8 µM
same,LC50,OVCAR-3 [10],4.6 µM
same,TGI,OVCAR-3 [10],2.1 µM
same,growth at 10 µM,COLO 205 [11],-74.1%
same,GI50,[12],0.5 µM
same,TGI,[12],1.9 µM
same,CC50,[12],5.5 µM
same,GI50,HCT-15 [13],0.3 µM
same,LC50,HCT-15 [13],3.4 µM
same,TGI,HCT-15 [13],1.1 µM
same,GI50,HT-29,0.2 µM
same,TGI,HT-29,0.5 µM
same,CC50,HT-29,1.8 µM
same,growth at 10 µM,SR [14],-65.2%
same,GI50,HL-60(TB),0.2 µM
same,GI50,Malme-3M,0.2 µM
same,TGI,Malme-3M,0.5 µM
same,CC50,Malme-3M,1.5 µM
same,growth at 10 µM,RXF 393,-67.7%
same,GI50,COLO 205 [15],0.2 µM
same,TGI,COLO 205 [15],1.4 µM
same,CC50,COLO 205 [15],6 µM
